SMILES strings stand for the structures. Numbered stars: 1 amine (or outer) side, 2 acyl side, 3 side chain; on linkers, the order of the positions; unused ones are H or OH. Side chains are listed from the residue outwards. Peptide text beside a SMILES is read from it. * marks the point of attachment. C18 diacid = O=C(O)CCCCCCCCCCCCCCCCC(=O)*; γGlu = O=C(O)[C@H](CCC(=O)[*:2])N[*:1]; AEEA = NCCOCCOCC(=O)O

A short description of the first series: Assay (II) PK i.v. minipig, in vivo half-life. More on the design: species or system Göttingen mini-pigs. The following applies: male, Göttingen, minipig, iv. A digest of the protocol:
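Male Göttingen mini-pigs (18–22 kg, n=5) received 6 nmol/kg i.v. via central catheter, formulated in 50 mM K2HPO4, 0.05% tween 80, pH 8.0. EDTA plasma sampled pre-dose to 240 h, quantified by TFC/LC/MS/MS (MRM, range 1-2000 nmol/l); half-life from non-compartmental analysis per animal.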
As to `CC[C@H](C)[C@H](NC(=O)[C@H](Cc1ccc(O)cc1)NC(=O)[C@H](CCCNC(=N)N)NC(=O)[C@H](CCCNC(=N)N)NC(=O)[C@H](CC(C)C)NC(=O)[C@H](CC(=O)O)NC(=O)[C@H](C)NC(=O)[C@H](C)NC(=O)[C@H](Cc1ccc(O)cc1)NC(=O)[C@H](CCC(N)=O)NC(=O)[C@H](C)NC(=O)[C@H](CCSC)NC(=O)[C@H](CCCCNC(=O)COCCOCCNC(=O)COCCOCCNC(=O)CC[C@H](NC(=O)CCCCCCCCCCCCCCCCC(=O)O)C(=O)O)NC(=O)[C@H](CCC(=O)O)NC(=O)[C@@H]1CCCN1C(=O)[C@@H](NC(=O)[C@H](C)NC(=O)[C@H](CC(N)=O)NC(=O)[C@H](CC(=O)O)NC(=O)CNC(=O)[C@@H]1CCCN1C(=O)[C@H](Cc1ccc(O)cc1)NC(=O)[C@@H](NC(=O)[C@@H]1CCCN1C(=O)[C@H](CCC(=O)O)NC(=O)[C@H](CC(C)C)NC(=O)[C@@H]1CCCN1)C(C)C)[C@@H](C)O)C(=O)N[C@@H](CC(N)=O)C(=O)N[C@@H](CCSC)C(=O)N[C@@H](CC(C)C)C(=O)N[C@H](C(=O)N[C@@H](CCCNC(=N)N)C(=O)N1CCC[C@H]1C(=O)N[C@@H](CCCNC(=N)N)C(=O)N[C@@H](Cc1ccc(O)cc1)C(N)=O)[C@@H](C)O` [Compound R] (H-PLEPVYPGDNATPEK([AEEA-AEEA-γGlu-C18 diacid])MAQYAADLRRYINMLTRPRY-NH2; N-terminus and C-terminus assumed), the “Half-life minipig, Assay (II)” value was 40 h.

The same series, now with this note: male, Göttingen, minipig, iv, Half-life minipig, Assay (II).
Consider `CC[C@H](C)[C@H](NC(=O)[C@H](Cc1ccc(O)cc1)NC(=O)[C@H](CCCNC(=N)N)NC(=O)[C@H](CCCNC(=N)N)NC(=O)[C@H](CC(C)C)NC(=O)[C@H](CC(=O)O)NC(=O)[C@H](C)NC(=O)[C@H](C)NC(=O)[C@H](Cc1ccc(O)cc1)NC(=O)[C@H](CCCCNC(=O)COCCOCCNC(=O)COCCOCCNC(=O)CC[C@H](NC(=O)CCCCCCCCCCCCCCCCC(=O)O)C(=O)O)NC(=O)[C@H](C)NC(=O)[C@H](CCSC)NC(=O)[C@H](CCC(N)=O)NC(=O)[C@H](CCC(=O)O)NC(=O)[C@@H]1CCCN1C(=O)[C@@H](NC(=O)[C@H](C)NC(=O)[C@H](CC(N)=O)NC(=O)[C@H](CC(=O)O)NC(=O)CNC(=O)[C@@H]1CCCN1C(=O)[C@H](Cc1ccc(O)cc1)NC(=O)[C@@H](NC(=O)[C@@H]1CCCN1C(=O)[C@H](CCC(=O)O)NC(=O)[C@H](CC(C)C)NC(=O)[C@@H]1CCCN1)C(C)C)[C@@H](C)O)C(=O)N[C@@H](CC(N)=O)C(=O)N[C@@H](CCSC)C(=O)N[C@@H](CC(C)C)C(=O)N[C@H](C(=O)N[C@@H](CCCNC(=N)N)C(=O)N1CCC[C@H]1C(=O)N[C@@H](CCCNC(=N)N)C(=O)N[C@@H](Cc1ccc(O)cc1)C(N)=O)[C@@H](C)O` [Compound O] (H-PLEPVYPGDNATPEQMAK([AEEA-AEEA-γGlu-C18 diacid])YAADLRRYINMLTRPRY-NH2; N-terminus and C-terminus assumed), for which the half-life is 60 h.

`CC[C@H](C)[C@H](NC(=O)[C@H](Cc1ccc(O)cc1)NC(=O)[C@H](CCCNC(=N)N)NC(=O)[C@H](CCCNC(=N)N)NC(=O)[C@H](CC(C)C)NC(=O)[C@H](CC(=O)O)NC(=O)[C@H](C)NC(=O)[C@H](C)NC(=O)[C@H](Cc1ccc(O)cc1)NC(=O)[C@H](CCC(N)=O)NC(=O)[C@H](CCCCNC(=O)COCCOCCNC(=O)COCCOCCNC(=O)CC[C@H](NC(=O)CCCCCCCCCCCCCCCCC(=O)O)C(=O)O)NC(=O)[C@H](CCSC)NC(=O)[C@H](CCC(N)=O)NC(=O)[C@H](CCC(=O)O)NC(=O)[C@@H]1CCCN1C(=O)[C@@H](NC(=O)[C@H](C)NC(=O)[C@H](CC(N)=O)NC(=O)[C@H](CC(=O)O)NC(=O)CNC(=O)[C@@H]1CCCN1C(=O)[C@H](Cc1ccc(O)cc1)NC(=O)[C@@H](NC(=O)[C@@H]1CCCN1C(=O)[C@H](CCC(=O)O)NC(=O)[C@H](CC(C)C)NC(=O)[C@@H]1CCCN1)C(C)C)[C@@H](C)O)C(=O)N[C@@H](CC(N)=O)C(=O)N[C@@H](CCSC)C(=O)N[C@@H](CC(C)C)C(=O)N[C@H](C(=O)N[C@@H](CCCNC(=N)N)C(=O)N1CCC[C@H]1C(=O)N[C@@H](CCCNC(=N)N)C(=O)N[C@@H](Cc1ccc(O)cc1)C(N)=O)[C@@H](C)O` [Compound P] (H-PLEPVYPGDNATPEQMK([AEEA-AEEA-γGlu-C18 diacid])QYAADLRRYINMLTRPRY-NH2; N-terminus and C-terminus assumed): the half-life was 71 h.

Take `CC[C@H](C)[C@H](NC(=O)[C@H](Cc1ccc(O)cc1)NC(=O)[C@H](CCCNC(=N)N)NC(=O)[C@H](CCCNC(=N)N)NC(=O)[C@H](CC(C)C)NC(=O)[C@H](CC(=O)O)NC(=O)[C@H](C)NC(=O)[C@H](C)NC(=O)[C@H](Cc1ccc(O)cc1)NC(=O)[C@H](CCC(N)=O)NC(=O)[C@H](C)NC(=O)[C@H](CCCCNC(=O)COCCOCCNC(=O)COCCOCCNC(=O)CC[C@H](NC(=O)CCCCCCCCCCCCCCCCC(=O)O)C(=O)O)NC(=O)[C@H](CCC(N)=O)NC(=O)[C@H](CCC(=O)O)NC(=O)[C@@H]1CCCN1C(=O)[C@@H](NC(=O)[C@H](C)NC(=O)[C@H](CC(N)=O)NC(=O)[C@H](CC(=O)O)NC(=O)CNC(=O)[C@@H]1CCCN1C(=O)[C@H](Cc1ccc(O)cc1)NC(=O)[C@@H](NC(=O)[C@@H]1CCCN1C(=O)[C@H](CCC(=O)O)NC(=O)[C@H](CC(C)C)NC(=O)[C@@H]1CCCN1)C(C)C)[C@@H](C)O)C(=O)N[C@@H](CC(N)=O)C(=O)N[C@@H](CCSC)C(=O)N[C@@H](CC(C)C)C(=O)N[C@H](C(=O)N[C@@H](CCCNC(=N)N)C(=O)N1CCC[C@H]1C(=O)N[C@@H](CCCNC(=N)N)C(=O)N[C@@H](Cc1ccc(O)cc1)C(N)=O)[C@@H](C)O` [Compound Q] (H-PLEPVYPGDNATPEQK([AEEA-AEEA-γGlu-C18 diacid])AQYAADLRRYINMLTRPRY-NH2; N-terminus and C-terminus assumed): the half-life is 56 h.

On to `CC[C@H](C)[C@H](NC(=O)[C@H](Cc1ccc(O)cc1)NC(=O)[C@H](CCCNC(=N)N)NC(=O)[C@H](CCCNC(=N)N)NC(=O)[C@H](CC(C)C)NC(=O)[C@H](CC(=O)O)NC(=O)[C@H](C)NC(=O)[C@H](C)NC(=O)[C@H](Cc1ccc(O)cc1)NC(=O)[C@H](CCC(N)=O)NC(=O)[C@H](C)NC(=O)[C@H](CCSC)NC(=O)[C@H](CCCCNC(=O)COCCOCCNC(=O)COCCOCCNC(=O)CC[C@H](NC(=O)CCCCCCCCCCCCCCCCC(=O)O)C(=O)O)NC(=O)[C@H](CCC(=O)O)NC(=O)[C@@H]1CCCN1C(=O)[C@@H](NC(=O)[C@H](C)NC(=O)[C@H](CC(N)=O)NC(=O)[C@H](CC(=O)O)NC(=O)CNC(=O)[C@@H]1CCCN1C(=O)[C@H](Cc1ccc(O)cc1)NC(=O)[C@@H](NC(=O)[C@@H]1CCCN1C(=O)[C@H](CCC(=O)O)NC(=O)[C@H](CC(C)C)NC(=O)[C@@H]1CCCN1)C(C)C)[C@@H](C)O)C(=O)N[C@@H](CC(N)=O)C(=O)N[C@@H](CCSC)C(=O)N[C@@H](CC(C)C)C(=O)N[C@H](C(=O)N[C@@H](CCCNC(=N)N)C(=O)N1CCC[C@H]1C(=O)N[C@@H](CCCNC(=N)N)C(=O)N[C@@H](Cc1ccc(O)cc1)C(N)=O)[C@@H](C)O` [Compound R] (H-PLEPVYPGDNATPEK([AEEA-AEEA-γGlu-C18 diacid])MAQYAADLRRYINMLTRPRY-NH2; N-terminus and C-terminus assumed), for which the half-life was 44 h.

As to `CC[C@H](C)[C@H](NC(=O)[C@H](Cc1ccc(O)cc1)NC(=O)[C@H](CCCNC(=N)N)NC(=O)[C@H](CCCNC(=N)N)NC(=O)[C@H](CC(C)C)NC(=O)[C@H](CC(=O)O)NC(=O)[C@H](C)NC(=O)[C@H](C)NC(=O)[C@H](Cc1ccc(O)cc1)NC(=O)[C@H](CCC(N)=O)NC(=O)[C@H](C)NC(=O)[C@H](CCSC)NC(=O)[C@H](CCC(N)=O)NC(=O)[C@H](CCCCNC(=O)COCCOCCNC(=O)COCCOCCNC(=O)CC[C@H](NC(=O)CCCCCCCCCCCCCCCCC(=O)O)C(=O)O)NC(=O)[C@@H]1CCCN1C(=O)[C@@H](NC(=O)[C@H](C)NC(=O)[C@H](CC(N)=O)NC(=O)[C@H](CC(=O)O)NC(=O)CNC(=O)[C@@H]1CCCN1C(=O)[C@H](Cc1ccc(O)cc1)NC(=O)[C@@H](NC(=O)[C@@H]1CCCN1C(=O)[C@H](CCC(=O)O)NC(=O)[C@H](CC(C)C)NC(=O)[C@@H]1CCCN1)C(C)C)[C@@H](C)O)C(=O)N[C@@H](CC(N)=O)C(=O)N[C@@H](CCSC)C(=O)N[C@@H](CC(C)C)C(=O)N[C@H](C(=O)N[C@@H](CCCNC(=N)N)C(=O)N1CCC[C@H]1C(=O)N[C@@H](CCCNC(=N)N)C(=O)N[C@@H](Cc1ccc(O)cc1)C(N)=O)[C@@H](C)O` [Compound S] (H-PLEPVYPGDNATPK([AEEA-AEEA-γGlu-C18 diacid])QMAQYAADLRRYINMLTRPRY-NH2; N-terminus and C-terminus assumed), the half-life is 35 h.

As for `CC[C@H](C)[C@H](NC(=O)[C@H](Cc1ccc(O)cc1)NC(=O)[C@H](CCCNC(=N)N)NC(=O)[C@H](CCCNC(=N)N)NC(=O)[C@H](CC(C)C)NC(=O)[C@H](CC(=O)O)NC(=O)[C@H](C)NC(=O)[C@H](C)NC(=O)[C@H](Cc1ccc(O)cc1)NC(=O)[C@H](CCC(N)=O)NC(=O)[C@H](C)NC(=O)[C@H](CCSC)NC(=O)[C@H](CCC(N)=O)NC(=O)[C@H](CCC(=O)O)NC(=O)[C@H](CCCCNC(=O)COCCOCCNC(=O)COCCOCCNC(=O)CC[C@H](NC(=O)CCCCCCCCCCCCCCCCC(=O)O)C(=O)O)NC(=O)[C@@H](NC(=O)[C@H](C)NC(=O)[C@H](CC(N)=O)NC(=O)[C@H](CC(=O)O)NC(=O)CNC(=O)[C@@H]1CCCN1C(=O)[C@H](Cc1ccc(O)cc1)NC(=O)[C@@H](NC(=O)[C@@H]1CCCN1C(=O)[C@H](CCC(=O)O)NC(=O)[C@H](CC(C)C)NC(=O)[C@@H]1CCCN1)C(C)C)[C@@H](C)O)C(=O)N[C@@H](CC(N)=O)C(=O)N[C@@H](CCSC)C(=O)N[C@@H](CC(C)C)C(=O)N[C@H](C(=O)N[C@@H](CCCNC(=N)N)C(=O)N1CCC[C@H]1C(=O)N[C@@H](CCCNC(=N)N)C(=O)N[C@@H](Cc1ccc(O)cc1)C(N)=O)[C@@H](C)O` [Compound T] (H-PLEPVYPGDNATK([AEEA-AEEA-γGlu-C18 diacid])EQMAQYAADLRRYINMLTRPRY-NH2; N-terminus and C-terminus assumed), the half-life was 45 h.

As for `CC[C@H](C)[C@H](NC(=O)[C@H](Cc1ccc(O)cc1)NC(=O)[C@H](CCCNC(=N)N)NC(=O)[C@H](CCCNC(=N)N)NC(=O)[C@H](CC(C)C)NC(=O)[C@H](CC(=O)O)NC(=O)[C@H](C)NC(=O)[C@H](C)NC(=O)[C@H](Cc1ccc(O)cc1)NC(=O)[C@H](CCC(N)=O)NC(=O)[C@H](C)NC(=O)[C@H](CCSC)NC(=O)[C@H](CCC(N)=O)NC(=O)[C@H](CCC(=O)O)NC(=O)[C@@H]1CCCN1C(=O)[C@H](CCCCNC(=O)COCCOCCNC(=O)COCCOCCNC(=O)CC[C@H](NC(=O)CCCCCCCCCCCCCCCCC(=O)O)C(=O)O)NC(=O)[C@H](C)NC(=O)[C@H](CC(N)=O)NC(=O)[C@H](CC(=O)O)NC(=O)CNC(=O)[C@@H]1CCCN1C(=O)[C@H](Cc1ccc(O)cc1)NC(=O)[C@@H](NC(=O)[C@@H]1CCCN1C(=O)[C@H](CCC(=O)O)NC(=O)[C@H](CC(C)C)NC(=O)[C@@H]1CCCN1)C(C)C)C(=O)N[C@@H](CC(N)=O)C(=O)N[C@@H](CCSC)C(=O)N[C@@H](CC(C)C)C(=O)N[C@H](C(=O)N[C@@H](CCCNC(=N)N)C(=O)N1CCC[C@H]1C(=O)N[C@@H](CCCNC(=N)N)C(=O)N[C@@H](Cc1ccc(O)cc1)C(N)=O)[C@@H](C)O` [Compound U] (H-PLEPVYPGDNAK([AEEA-AEEA-γGlu-C18 diacid])PEQMAQYAADLRRYINMLTRPRY-NH2; N-terminus and C-terminus assumed), the half-life is 23 h.

One may read the half-life as the time needed for the level to fall by half in the phase considered.

The record behind these values is patent US20150141336A1, “Pancreatic Peptide Compounds and Use” (Novo Nordisk A/S, priority 2012, published 2015).
